Experimental data as given in the supplement of paper PMC10307832.

Tests used:
Test in all cases: relative viability (nuclei count vs DMSO), 5 days (fraction); higher = more cells survive
Midostaurin + Vorinostat = compound: CO[C@@H]1[C@H](N(C)C(=O)c2ccccc2)C[C@H]2O[C@]1(C)n1c3ccccc3c3c4c(c5c6ccccc6n2c5c31)C(=O)NC4 [Midostaurin] + O=C(CCCCCCC(=O)Nc1ccccc1)NO [Vorinostat] (partner 1 µM)
How it was run: (§1)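 Lung cancer cell lines in 1536-well plates were dosed by pin tool the day after seeding, either with one drug alone or with a fixed anchor-drug dose plus five library-drug doses (not always all listed) in √10 steps. After 5 days, cells were fixed and their nuclei stained in one step (final 0.05% Triton X-100, 1% formaldehyde, 1 ug/ml Hoechst), then counted on 4× images. Relative viability is the nuclei count in treated wells divided by that in vehicle wells. Values are medians of duplicate plates.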

[1] = compound: COc1cc(-c2nn([C@H]3CC[C@H](N4CCN(C(C)=O)CC4)CC3)c3ncnc(N)c23)ccc1NC(=O)c1cc2ccccc2n1C + CC(=O)c1c(C)c2cnc(Nc3ccc(N4CCNCC4)cn3)nc2n(C2CCCC2)c1=O [Palbociclib] (partner 0.5 µM)
How it was run: as §1

Midostaurin + Lapatinib = compound: CO[C@@H]1[C@H](N(C)C(=O)c2ccccc2)C[C@H]2O[C@]1(C)n1c3ccccc3c3c4c(c5c6ccccc6n2c5c31)C(=O)NC4 [Midostaurin] + CS(=O)(=O)CCNCc1ccc(-c2ccc3ncnc(Nc4ccc(OCc5cccc(F)c5)c(Cl)c4)c3c2)o1 [Lapatinib] (partner 2 µM)
How it was run: as §1

[2] = compound: COc1cc(-c2nn([C@H]3CC[C@H](N4CCN(C(C)=O)CC4)CC3)c3ncnc(N)c23)ccc1NC(=O)c1cc2ccccc2n1C + Cc1nc(Nc2ncc(C(=O)Nc3c(C)cccc3Cl)s2)cc(N2CCN(CCO)CC2)n1 [Dasatinib] (partner 0.075 µM)
How it was run: as §1

[3] = compound: COc1cc(-c2nn([C@H]3CC[C@H](N4CCN(C(C)=O)CC4)CC3)c3ncnc(N)c23)ccc1NC(=O)c1cc2ccccc2n1C + N=C(N)NC(=N)NCCc1ccccc1 [Phenformin] (partner 250 µM)
How it was run: as §1

Cell Line | relative viability (Midostaurin + Vorinostat; first compound 0.01 µM) | relative viability (Midostaurin + Vorinostat; first compound 0.3162 µM) | relative viability ([1]; first compound 0.0128 µM) | relative viability ([1]; first compound 0.04048 µM) | relative viability ([1]; first compound 0.128 µM) | relative viability ([1]; first compound 1.28 µM) | relative viability (Midostaurin + Lapatinib; first compound 0.01 µM) | relative viability (Midostaurin + Lapatinib; first compound 0.03162 µM) | relative viability (Midostaurin + Lapatinib; first compound 0.1 µM) | relative viability (Midostaurin + Lapatinib; first compound 0.3162 µM) | relative viability (Midostaurin + Vorinostat; first compound 0.03162 µM) | relative viability (Midostaurin + Vorinostat; first compound 0.1 µM) | relative viability ([2]; first compound 0.0128 µM) | relative viability ([2]; first compound 0.04048 µM) | relative viability ([2]; first compound 0.128 µM) | relative viability ([2]; first compound 1.28 µM) | relative viability ([3]; first compound 0.0128 µM) | relative viability ([3]; first compound 0.04048 µM) | relative viability ([3]; first compound 0.128 µM) | relative viability ([3]; first compound 1.28 µM)
NCI-H1648 | 0.534 | 0.497 | 0.263 | 0.275 | 0.242 | 0.333 |  |  |  |  |  |  |  |  |  |  |  |  |  | 
SK-MES-1 | 1.07 | 1.08 | 0.298 | 0.374 | 0.319 | 0.277 | 0.455 | 0.439 | 0.395 | 0.491 | 0.968 | 0.982 | 0.44 | 0.34 | 0.378 | 0.384 | 0.785 | 0.708 | 0.587 | 0.631
HCC-366 | 0.364 | 0.0688 | 0.485 | 0.431 | 0.403 | 0.256 | 1.01 | 1.04 | 1.04 | 1.13 | 0.306 | 0.308 | 0.711 | 0.517 | 0.667 | 0.607 | 0.566 | 0.664 | 0.623 | 0.658
201T | 0.991 | 1.08 | 0.353 | 0.402 | 0.337 | 0.294 | 1.06 | 0.982 | 1.07 | 1.08 | 0.871 | 1.02 | 0.617 | 0.511 | 0.537 | 0.448 | 0.448 | 0.446 | 0.401 | 0.353
HCC-827 | 0.869 | 0.873 | 0.492 | 0.455 | 0.484 | 0.218 | 0.198 | 0.225 | 0.204 | 0.225 | 0.724 | 0.897 | 0.311 | 0.313 | 0.281 | 0.275 | 0.384 | 0.396 | 0.406 | 0.39
NCI-H647 | 0.591 | 0.275 | 0.391 | 0.382 | 0.4 | 0.216 | 0.932 | 1.12 | 0.768 | 0.646 | 0.988 | 0.536 | 0.155 | 0.227 | 0.164 | 0.203 | 0.526 | 0.528 | 0.428 | 0.4
NCI-H2023 | 0.601 | 0.146 | 0.436 | 0.358 | 0.318 | 0.293 | 0.851 | 0.621 | 0.777 | 0.555 | 0.78 | 0.5 | 0.559 | 0.668 | 0.524 | 0.663 | 0.404 | 0.426 | 0.355 | 0.323
NCI-H520 | 0.684 | 0.412 | 0.197 | 0.227 | 0.206 | 0.12 | 0.866 | 0.942 | 0.762 | 0.781 | 0.702 | 0.694 | 0.211 | 0.273 | 0.236 | 0.307 | 0.45 | 0.521 | 0.566 | 0.425
RERF-LC-KJ | 0.715 | 0.646 | 1.08 | 1.19 | 1.07 | 0.972 | 0.881 | 0.91 | 0.907 | 0.922 | 0.709 | 0.67 | 0.816 | 0.76 | 0.772 | 0.794 | 0.377 | 0.448 | 0.413 | 0.379
A-427 | 0.883 | 0.937 | 0.544 | 0.554 | 0.551 | 0.521 | 0.95 | 0.993 | 0.835 | 1.1 | 0.887 | 0.848 | 0.744 |  | 0.65 | 0.856 | 0.335 |  | 0.268 | 0.254
NCI-H441 | 0.846 | 0.585 | 0.248 | 0.167 | 0.228 | 0.152 |  |  |  |  | 0.801 | 0.801 | 0.628 | 0.463 | 0.657 | 0.536 | 0.855 | 0.757 | 0.849 | 0.812
NCI-H1703 |  |  |  |  |  |  | 1.04 | 1.08 | 1.1 | 0.317 |  |  |  |  |  |  |  |  |  | 
NCI-H1792 |  |  | 0.663 | 0.626 | 0.657 | 0.636 | 0.932 | 0.875 | 0.862 | 0.91 |  |  | 0.505 | 0.731 | 0.749 | 0.645 | 0.263 | 0.288 | 0.369 | 0.309
Calu-6 |  |  |  |  |  |  | 0.94 | 1.02 | 1.02 | 0.986 |  |  |  |  |  |  |  |  |  | 
SK-LU-1 | 0.735 | 0.47 | 0.41 | 0.369 | 0.357 | 0.249 | 0.806 | 1.17 | 0.823 | 0.572 | 0.765 | 0.685 | 0.201 | 0.236 | 0.211 | 0.243 | 0.588 | 0.425 | 0.48 | 0.338
PC-3 [JPC-3] | 0.776 | 1.07 | 0.588 | 0.621 | 0.529 | 0.676 | 0.432 | 0.439 | 0.488 | 0.43 | 0.788 | 0.68 | 0.985 | 0.881 | 0.922 | 1.03 | 0.488 | 0.474 | 0.461 | 0.512
EMC-BAC-2 | 0.415 | 0.476 | 0.551 | 0.582 | 0.528 | 0.514 | 0.869 | 0.828 | 0.872 | 0.885 | 0.437 | 0.407 | 0.309 | 0.391 | 0.244 | 0.481 | 0.563 | 0.633 | 0.499 | 0.422
LK-2 | 0.252 | 0.277 | 0.698 | 0.858 | 0.834 | 0.518 | 0.916 | 0.901 | 0.921 | 0.822 | 0.258 | 0.328 | 0.312 | 0.264 | 0.326 | 0.417 | 0.423 | 0.38 | 0.408 | 0.485
